Patent US20240292836A1, “AGENTS FOR REPELLING, KNOCKING DOWN, AND/OR KILLING BLOOD-SUCKING ARTHROPODS AND USES THEREOF” (The United States of America, as represented by the …, priority 2023, published 2024)
“And” between values parts separate entries of the source, which are not always exact repeats. Equal entries are not always repeated. “Also recorded” adds a separate entry of the source.

Tests used:
[1] = tested on: female Aedes aegypti adults; experiment: Arm-in-cage cloth-patch in vivo assay (topical repellency); conditions: for Minimum Effective Dose (MED): Mean ± SEM, lowest dosage with five or fewer bites through repellent-treated cloth in 1-minute exposure, at least three volunteers; for topical repellency (in words): initial screening dose of 0.187 mg/cm^2
Source text: Arm-in-Cage Test Cloth-Patch in vivo Assay Pyrethroid-susceptible yellow fever mosquitoes Ae. aegypti (Orlando strain) were reared in the United States Department of Agriculture Mosquito and Fly Research Unit in Gainesville, FL under standard protocols. Three to seven-day-old, starved female mosquitoes were collected using a “draw box” (Posey, K. and Schreck, C. E, 1981, “An airflow apparatus for selecting female mosquitoes for use in repellent and attraction studies” Mosquito News 41: 566-568; US. Department of Agriculture, 1977, Repellent activity of compounds submitted by Walter Reed Army Institute of Research. Part 1. Protection time and minimum effective dosage against Aedes aegypti mosquitoes. Tech. Bull. No. 1549) and were placed in cages at an approximate density 200 mosquitoes/cage. Repellency was determined according to a standard protocol (Bernier, U. R., et al, 2022. “Evaluation and application of repellent-treated uniform/clothing and textiles against vector mosquitoes,” In Advances in Arthropod Repellents (pp. 69-94). Academic Press) and reported as the minimum effective dosage (MED). […] A nylon leg stocking was placed over the arm to prevent direct contact of the repellent-treated cloth patch with the skin. […]. Cloth was treated by placing a rolled bandage (50 cm^2) into each vial containing 1 mL of solution and allowing the patch to absorb the solution completely. The cloth was taped over a 4 by 9-cm opening cut into a vinyl plastic sheet that was draped around the volunteers' arms and taped in place. The cloth was air-dried approximately 15 min before conducting each test. The work reported here is an average of the MED for at least three volunteers. Each volunteer covered his or her arm with a nylon stocking to avoid contact between the skin and the treated cloth and wore a rubber glove to prevent mosquito bites on the hand.
. The minimum effective dose (MED) was determined for each repellent and subject, defined as the lowest concentration that prevents biting). MEDs from each subject were pooled and reported as the average among all replicates/subjects with SEM. A minimum of 3 replicates were performed on at least three human subjects. Written informed consent was obtained for all human subjects used in this study in accordance with IRB protocol #20193320, as approved by the WCG™ IRB.
Statistical Analyses: Student's T-test was used to compare the means between tested compound and DEET and Icaridin in the arm-in-cage in vivo assay and neurophysiological study.

[2] = tested on: female Aedes aegypti adults; experiment: High-throughput in vitro screening assay, spatial repellency; type: in vivo; conditions: for 30-minute RD50 compared with that of DEET: 30 minutes, α = 0.05; for RD50 (30 min), half-repellent dose / RD50 (60 min), half-repellent dose: dose per filter paper surface area, 95% CI; for spatial repellency (in words): highest-tested dose of 100 μg/cm^2
Source text: A high-throughput screening method for evaluating spatial repellency and vapor toxicity, described by Jiang S., et al. (2019, “High-Throughput Screening Method for Evaluating Spatial Repellency and Vapour Toxicity to Mosquitoes,” Med. Vet. Entomol. 33: 388-396), was used for this study. As shown in FIG. 2 of Jiang S., et al., assay tubes were constructed by covering 12.5 cm glass tubes on one side with netting secured by a rubber band. The tubes were used in horizontal orientation. Adult mosquitos 2-7 days old were anesthetized on ice for approximately 5 minutes and 16 females were transferred to each tube. The other end of the tube was then closed with netting and a rubber band.
The conical ends of 50 mL centrifuge tubes (Eppendorf, Enfield, Connecticut, USA) were cut at approximately the 10 mL mark to create the end caps for the assay tubes. […] For repellency tests, filter papers for the “untreated” side of the assay tube received pure acetone, whereas filter papers for the “treated” side received acetone solution containing a dissolved compound of interest. For knockdown tests, both filter papers were treated with acetone solution containing one or more compounds of interest. Acetone on both filter papers served as negative controls.
For repellency assays, filter papers were given 10 minutes of evaporation time before being placed into the end caps with forceps (Jiang S., et al. 2019, Supra). For knockdown assays, filter papers were given 5 minutes of evaporation time before being placed into the end caps. […] Assay tubes were capped such that the cap securely overlapped the glass but approximately 5 mm of space was left between the netting and the filter paper so that the mosquitos could not contact the filter paper.
Assay tubes were placed on a white polystyrene platform with wooden sticks glued flatly across it to prevent the tubes from rolling. A straight black line was drawn down the center of the platform and assay tubes were centered on the line at the beginning of the tests. In repellency assays, data were collected at 15, 30, and 60 minutes after the end caps were placed on the assay tubes. Assay tubes were not disturbed for the entire 60 minutes. At each time point, the number of mosquitos that remained on the treated side was visually assessed and recorded. The treated side was alternated with each set of tests. For repellency tests, DEET at a dose of 100 μg/cm^2 served as the positive control.
For the high-throughput in vitro screening assays, analyses were conducted with R version 4.2.2 statistical software (R Core Team, 2022, “R: a language and environment for statistical computing. R foundation for statistical computing,” Vienna, Austria). Concentrations were calculated in terms of filter paper surface area (μg/cm^2) for repellency assays and in terms of assay tube volume (μg/cm^3) for knockdown assays.
Half-repellent (RD50), half-knockdown (KD50), and half-lethal (LD50) doses were calculated from dose-response curves (DRCs) obtained by four-parameter log-logistic equation models generated using the drc package (Dose Response Curve Analyses Software; Ritz C. et al., 2015, “Dose-response analysis using R,” PLOS ONE 10: e0146021). For repellency test analysis, the upper and lower asymptotes for the proportion of mosquitos remaining on the treated side were fixed at 0.5 and 0, respectively. For KD and mortality test analysis, the upper and lower asymptotes for the proportion of mosquitos knocked down or killed were fixed at 1.0 and 0, respectively. To determine whether RD50, KD50, or LD50 values differed across compounds at each timepoint, a joint model assuming different values for each compound and a null model that assumed a single value for all compounds were compared with a likelihood ratio test.

SMILES | Minimum Effective Dose (MED) [1] | 30-minute RD50 compared with that of DEET [2] | topical repellency (in words) [1] | RD50 (30 min), half-repellent dose [2] | RD50 (60 min), half-repellent dose [2] | spatial repellency (in words) [2] | MED, times lower than the initial screening dose ([1]; relative to initial screening dose of 0.187 mg/cm^2)
C=CCOC(=O)c1ccccc1N [AA, allyl anthranilate] | 0.039 mg/cm^2 | significantly lower than that of DEET | – | – | – | – | –
O=C(OCc1ccccc1)c1ccccc1 [BB, benzyl benzoate] | >0.187 mg/cm^2 | – | did not show any topical repellencies | >100 μg/cm^2 | >100 μg/cm^2 | did not show spatial repellencies | –
CCOC(=O)c1ccccc1OC [E2MOB, ethyl 2-methoxybenzoate] | – | significantly lower than that of DEET | did not exhibit topical repellency | 8.83 μg/cm^2 | – | – | –
CCOC(=O)c1cccc(N)c1 [E3AB, ethyl 3-aminobenzoate] | 0.039 mg/cm^2 | – | – | >100 μg/cm^2 | >100 μg/cm^2 | did not show any spatial repellencies | –
CCOC(=O)c1ccc(OC)cc1 [E4MOB, ethyl 4-methoxybenzoate] | >0.187 mg/cm^2 | significantly lower than that of DEET | did not show any topical repellencies; also recorded: did not exhibit topical repellency | – | – | – | –
CCOC(=O)c1ccccc1N [EA, ethyl anthranilate] | 0.037 mg/cm^2 | significantly lower than that of DEET | – | – | – | – | –
CCOC(=O)c1ccccc1 [EB, ethyl benzoate] | >0.187 mg/cm^2 | – | did not show any topical repellencies | >100 μg/cm^2 | >100 μg/cm^2 | did not show spatial repellencies | –
CCOC(=O)c1ccccc1NC=O [EFA, ethyl N-formylanthranilate] | 0.0062 mg/cm^2 | – | – | >100 μg/cm^2 | >100 μg/cm^2 | did not show spatial repellencies | 30 times
CCC(C)OC(=O)N1CCCCC1CCO (centres unmarked) [Icaridin, 1-(1-Methylpropoxycarbonyl)-2-(2-hydroxyethyl)piperidine, reference compound] | 0.0150±0.004 mg/cm^2 and 0.0150 mg/cm^2 | – | – | – | – | – | –
COC(=O)c1ccccc1S(N)(=O)=O [M2ASB, methyl 2-(aminosulfonyl)benzoate] | >0.187 mg/cm^2 | – | did not show any topical repellencies | >100 μg/cm^2 | >100 μg/cm^2 | did not show spatial repellencies | –
COC(=O)c1ccccc1Cl [M2CB, methyl 2-chlorobenzoate] | 0.164 mg/cm^2 | not significantly different from that of DEET | demonstrated repellency at doses lower than 0.187 mg/cm^2 on at least one test subject | – | – | – | –
COC(=O)c1ccccc1C [M2MB, methyl 2-methylbenzoate] | 0.250 mg/cm^2 | – | demonstrated repellency at doses lower than 0.187 mg/cm^2 on at least one test subject | >100 μg/cm^2 | >100 μg/cm^2 | did not show spatial repellencies | –
CNc1ccccc1C(=O)OC [MMA, methyl N-methylanthranilate] | – | significantly lower than that of DEET | – | – | – | – | –
CC(C)COC(=O)c1ccccc1N [iBA, iso-butyl anthranilate] | – | not significantly different from that of DEET | – | – | – | – | –
CCCCOC(=O)c1ccccc1N [nBA, n-butyl anthranilate] | – | – | – | >100 μg/cm^2 | – | did not show any spatial repellencies | –
